Results on 4 molecules are retold here after PMC6894882 (PLoS Neglected Tropical Diseases, 2019).

The subject of one series is cytokines and chemokines. Further details: species or system mice. As to conditions: mouse, in vivo.
The subject of series [1] is Norovirus (human norovirus, GT1 strain). Nature of the series: microbe, parasite or virus in culture. The settings on record: read-out: EC50. Format: cell-based.
The test system of series [2] is EBOV. As to conditions: mouse, in vivo; cited from earlier work.
The test system of series [3] is EBOV. As to conditions: in vivo; cited from earlier work.
Series [4] relates to EBOV. The settings on record: in vivo; cited from earlier work. This is another data set of the same source.

Structures can show the parent of a compound that is named as a salt.

`CCN(CC)CCOc1ccc2c(c1)C(=O)c1cc(OCCN(CC)CC)ccc1-2` [Tilorone, tilorone dihydrochloride]: in the series with cytokines and chemokines, the IFN-α/β levels result is “below the LLOD”; the “cytokine/chemokine protein concentrations over vehicle-treated and naïve mice” value is recorded as “statistically significant increase in observed protein concentrations”.

For the molecule `C[C@@]1(O)[C@H](O)[C@@H](CO)O[C@H]1n1ccc(N)nc1=O` [2’C-methyl cytidine], the EC50 (commonly the concentration that produces a half-maximal response) in series [1] amounted to 6.5 µM. The CC50 in the series on HG23 is greater than 300 µM. On to `CCN(CC)CCCC(C)Nc1ccnc2cc(Cl)ccc12` (stereo not shown) [chloroquine], for which the survival rate in the series on EBOV [2] is 90%. Moreover, in the series on EBOV [3], the “activity in guinea pig studies” value was “inactive”.

B1: mAb114 (antibody, chains of the INN, looked up, V domains shown)
VH: EVQLVESGGGLIQPGGSLRLSCAASGFALRMYDMHWVRQTIDKRLEWVSAVGPSGDTTYADSVKGRFAVSRENAKNSLSLQMNSLTAGDTAIYYCVRSDRGVAGLFDSWGQGILVTVSS
VL: DIQMTQSPSSLSASVGDRITITCRASQAFDNYVAWYQQRPGKVPKLLISAASALHAGVPSRFSGSGSGTHFTLTISSLQPEDVATYYCQNYNSAPLTFGGGTKVEIK
As to B1, the “survival rates in clinical trial” value in the series with EBOV [4] is “higher survival rates than ZMapp and remdesivir”.
